Columns and labels:
SK-MEL-28 = conditions: SK-MEL-28, 10 μM
SN12C = conditions: 10 μM
SW-620 = conditions: SW-620, 10 μM
HT29 = conditions: HT29, 10 μM
786-0 = conditions: 786-0, 10 μM
NCI/ADR-RES = conditions: 10 μM
NCI-H460 = assay: NCI SRB screening; format: cell-based, human; conditions: NCI-H460, 10 μM
HOP-62 = conditions: HOP-62, 10 μM
NCI-H23 = conditions: NCI-H23, 10 μM
MOLT-4 = conditions: MOLT-4, 10 μM
EKVX = conditions: 10 μM
HCT-116 [1] = conditions: HCT-116, 10 μM
K-562 = conditions: K-562, 10 μM
OVCAR-4 = conditions: OVCAR-4, 10 μM
MDA-MB-231 = assay: SRB anti-proliferative assay; format: cell-based; conditions: Homo sapiens; MDA-MB-231, SRB, mean ± SE of 3
Method: (§1) All the newly prepared target conjugates (7, 8a–c, 9 and 10a–e) were investigated for the prospective growth inhibitory actions against three different cancer cell lines viz.; A-549, MDA-MB-231, and HCT-116, using the sulforhodamine B colorimetric (SRB) assay. Staurosporine, a clinically used antitumor drug, was co-assayed as a reference agent for the experiment.
(§2) Examination of the cytotoxic activity for the target conjugates was carried out in accordance with the SRB colorimetric assay protocol, as described previously.
(§3) In vitro anti-proliferative activity assay
(§4) Cells at a concentration of 0.50 x
(§5) Sulfo-Rhodamine-B stain (SRB) assay.
(§6) cell to the wall of the plate.
(§7) wells were prepared for each individual dose).
(§8) Unbound dye was removed by four

HCT-116 [2] = assay: SRB anti-proliferative assay; format: cell-based; conditions: Homo sapiens; HCT-116, SRB, mean ± SE of 3
Method: as §1, §2, §3, §4, §5, §6, §7, §8

COLO 205 = assay: NCI SRB screening; format: cell-based, human; conditions: COLO 205, 10 μM

SMILES	GI % (SK-MEL-28)	GI % (SN12C)	GI % (SW-620)	GI % (HT29)	GI % (786-0)	GI % (NCI/ADR-RES)	GI % (NCI-H460)	GI % (HOP-62)	GI % (NCI-H23)	GI % (MOLT-4)	GI % (EKVX)	GI % (HCT-116 [1])	GI % (K-562)	GI % (OVCAR-4)	IC50 (MDA-MB-231)	IC50 (HCT-116 [2])	GI % (COLO 205)
CCCn1cc(/C=N/N=C2\C(=O)Nc3ccc(OC(F)(F)F)cc32)c2ccccc21 [Compound 8b]	– (Only GI % higher than 10% are shown)	– (Only GI % higher than 10% are shown)	– (Only GI % higher than 10% are shown)	25%	– (Only GI % higher than 10% are shown)	15%	11%	21%	12%	50%	40%	21%	33%	– (Only GI % higher than 10% are shown)	8.9 ± 0.61 µM	19.1 ± 1.34 µM	– (Only GI % higher than 10% are shown)
CCCn1cc(C=NN=C2C(=O)Nc3ccc([N+](=O)[O-])cc32)c2ccccc21 [Compound 8c]	– (Only GI % higher than 10% are shown)	– (Only GI % higher than 10% are shown)	– (Only GI % higher than 10% are shown)	– (Only GI % higher than 10% are shown)	– (Only GI % higher than 10% are shown)	– (Only GI % higher than 10% are shown)	19%	– (Only GI % higher than 10% are shown)	– (Only GI % higher than 10% are shown)	– (Only GI % higher than 10% are shown)	– (Only GI % higher than 10% are shown)	20%	18%	– (Only GI % higher than 10% are shown)	15.6 ± 0.98 µM	6.4 ± 0.5 µM	– (Only GI % higher than 10% are shown)
CC(C)n1cc(C=NN=C2C(=O)Nc3ccccc32)c2ccccc21 [Compound 9]	– (Only GI % higher than 10% are shown)	– (Only GI % higher than 10% are shown)	– (Only GI % higher than 10% are shown)	– (Only GI % higher than 10% are shown)	– (Only GI % higher than 10% are shown)	– (Only GI % higher than 10% are shown)	– (Only GI % higher than 10% are shown)	– (Only GI % higher than 10% are shown)	– (Only GI % higher than 10% are shown)	13%	38%	– (Only GI % higher than 10% are shown)	– (Only GI % higher than 10% are shown)	– (Only GI % higher than 10% are shown)	10.4 ± 0.8 µM	28.2 ± 1.73 µM	– (Only GI % higher than 10% are shown)
C=CCn1cc(C=NN=C2C(=O)Nc3ccccc32)c2ccccc21 [Compound 10a]	– (Only GI % higher than 10% are shown)	– (Only GI % higher than 10% are shown)	– (Only GI % higher than 10% are shown)	10%	– (Only GI % higher than 10% are shown)	– (Only GI % higher than 10% are shown)	– (Only GI % higher than 10% are shown)	– (Only GI % higher than 10% are shown)	12%	35%	– (Only GI % higher than 10% are shown)	24%	30%	27%	11.7 ± 1.04 µM	7.7 ± 0.68 µM	30%
C=CCn1cc(C=NN=C2C(=O)Nc3c(F)cccc32)c2ccccc21 [Compound 10c]	– (Only GI % higher than 10% are shown)	– (Only GI % higher than 10% are shown)	– (Only GI % higher than 10% are shown)	– (Only GI % higher than 10% are shown)	– (Only GI % higher than 10% are shown)	– (Only GI % higher than 10% are shown)	– (Only GI % higher than 10% are shown)	– (Only GI % higher than 10% are shown)	– (Only GI % higher than 10% are shown)	19%	15%	28%	20%	22%	35.4 ± 1.92 µM	7.3 ± 0.47 µM	– (Only GI % higher than 10% are shown)
C=CCn1cc(C=NN=C2C(=O)Nc3ccc(Cl)cc32)c2ccccc21 [Compound 10d]	– (Only GI % higher than 10% are shown)	– (Only GI % higher than 10% are shown)	– (Only GI % higher than 10% are shown)	– (Only GI % higher than 10% are shown)	– (Only GI % higher than 10% are shown)	– (Only GI % higher than 10% are shown)	– (Only GI % higher than 10% are shown)	– (Only GI % higher than 10% are shown)	– (Only GI % higher than 10% are shown)	14%	33%	– (Only GI % higher than 10% are shown)	– (Only GI % higher than 10% are shown)	– (Only GI % higher than 10% are shown)	42.9 ± 2.51 µM	28.5 ± 1.59 µM	– (Only GI % higher than 10% are shown)

— paper PMC7717600, “Novel [(N-alkyl-3-indolylmethylene)hydrazono]oxindoles arrest cell cycle and induce cell apoptosis by inhibiting CDK2 and Bcl-2: synthesis, biological evaluation and in silico studies” (Journal of Enzyme Inhibition and Medicinal Chemistry, 2020)
